Data reported in patent US11958863B2, “Binding competitors for use in macrophilin-binding pharmaceutical assays and methods of use thereof” (Siemens Healthcare Diagnostics Inc., priority 2018, dated 2024).

Experiments:
[1] = tested on: tacrolimus assay antibody (1E2 Clone); experiment: Cross-reactivity with tacrolimus assay antibody; type: binding; details: for Cross-reactivity with tacrolimus assay antibody (in words): 1E2 clone, compared with the '518 patent analog; for % Cross-Reactivity: tacrolimus assay antibody 1E2 clone
Description: (§1) Table 2 indicates the cross-reactivities detected for the various displacers of the present disclosure with the everolimus assay antibody (155-M1), while Table 3 indicates the cross-reactivities detected for the various displacers of the present disclosure with the tacrolimus assay antibody (1E2 clone).
Next, the cross-reactivity of each of the analogs used in the everolimus assay was tested with the antibody used in the tacrolimus assay (Table 3). While efforts may be made to minimize reagent carryover from the everolimus assay to the tacrolimus assay, an automated instrument may run both everolimus and tacrolimus (or sirolimus) assays simultaneously. Therefore, due to the use of a large amount of displacer (tacrolimus analogs) present in the everolimus assay, the displacer could be carried into the tacrolimus assay, and this would cause a falsely elevated signal in the tacrolimus assay if cross-reaction were observed.

[2] = tested on: endogenous binding proteins (immunophilins such as FKBPs); experiment: Everolimus (EVRO) DIMENSION immunoassay standard curves with displacers; details: whole blood sample
Description: (§2) The automated DIMENSION® assay system (Siemens Healthcare Diagnostics Inc., Tarrytown, NY), the everolimus (EVRO) assay method uses an immunoassay technique in which free and everolimus-bound antibody-enzyme conjugate is separated using magnetic particles. The assay antibody used for this assay is a mouse monoclonal antibody (cell line: 155-M1). The assay was performed using a method specific FLEX® reagent cartridge (Siemens Healthcare Diagnostics Inc., Tarrytown, NY). The FLEX® reagent cartridge contains a pretreatment reagent, antibody-β-galactosidase conjugate, everolimus analog immobilized on chromium dioxide particles, chlorophenol red β-d-galactopyranoside (CPRG) substrate, and diluent to hydrate the tablets. To perform the EVRO assay, a sample cup (or SSC) containing the whole blood sample to be analyzed and an EVRO FLEX® reagent cartridge were placed appropriately on the DIMENSION® system. The DIMENSION® system mixed and lysed the whole blood sample in the presence of the pretreatment reagent that contains detergents and a displacer (FK506 or FK506 analogs as described previously). This reagent contains a displacer which acts to displace everolimus in the sample from endogenous binding proteins (immunophilins such as FKBPs, etc.). The lysed sample was then mixed with the antibody enzyme conjugate. The everolimus present in the sample was bound by the everolimus antibody. Magnetic particles coated with everolimus analog were added to bind free (unbound) antibody-enzyme conjugate. The reaction mixture was then separated magnetically. Following separation, the supernatant containing the everolimus-antibody-enzyme complex was transferred to a cuvette and mixed with the substrate, chlorophenol red β-d-galactopyranoside (CPRG). β-galactosidase catalyzes the hydrolysis of CPRG to produce chlorophenol red (CPR) that absorbs light maximally at 577 nm. The change in absorbance at 577 nm due to the formation of CPR is directly proportional to the amount of everolimus in the patient's sample and is measured using a bichromatic (577 nm, 700 nm) rate technique.
The assay was conducted in the absence of any displacer as well as in the presence of the following displacers: tacrolimus (FK506, as represented by Formula I), FK506 Ester (disclosed in U.S. Pat. No. 7,186,518), FK506 C24 succinate (as represented by Formula VII), Reduced FK506 (as represented by Formula IV), FK506 22-oxime-32-isocyanatoacetatethyl ester (as represented by Formula VI), and FK506 oxime (as represented by Formula V).
The ability of the FK analogs to displace everolimus drug in the everolimus assay is a function of their FKBP (macrophilin) binding. So the curve size after adding the displacer indicates the ability of their FKBP binding: the larger the curve size, the better the binding.

[3] = tested on: everolimus assay antibody (155-M1 Clone); experiment: Cross-reactivity with everolimus assay antibody; type: binding, mouse; details: for % Cross-Reactivity: everolimus assay antibody 155-M1 clone
Description: as §2, §1

Row | SMILES | Cross-reactivity with tacrolimus assay antibody (in words) [1] | % Cross-Reactivity [1] [%] | Everolimus standard curve signal with displacer ([2]; BV 0 ng/mL everolimus) | Everolimus standard curve signal with displacer ([2]; BV 5.5 ng/mL everolimus) | Everolimus standard curve signal with displacer ([2]; BV 11.2 ng/mL everolimus) | Everolimus standard curve signal with displacer ([2]; BV 21.9 ng/mL everolimus) | Everolimus standard curve signal with displacer ([2]; BV 34.3 ng/mL everolimus) | % Cross-Reactivity [3] [%] | Cross-reactivity with everolimus assay antibody (in words) ([3]; 155-M1 clone)
1 | C=CC[C@@H]1/C=C(\C)C[C@H](C)C[C@H](OC)[C@H]2O[C@@](O)(C(=O)C(=O)N3CCCC[C@H]3C(=O)O[C@H](/C(C)=C/[C@@H]3CC[C@@H](O)[C@H](OC)C3)[C@H](C)[C@@H](OC(=O)CCC(=O)O)CC1=O)[C@H](C)C[C@@H]2OC [24-Succinate FK506, FK506 C24 succinate] | much lower cross-reactivities | 13.3 | 16 | 71 | 108 | 145 | 157 | 0.01 | 
2 | C=CC[C@@H]1/C=C(\C)C[C@H](C)C[C@H](OC)[C@H]2O[C@@](O)(C(=O)C(=O)N3CCCC[C@H]3C(=O)O[C@H](/C(C)=C/[C@@H]3CC[C@@H](O)[C@H](OC)C3)[C@H](C)[C@@H](O)CC1=O)[C@H](C)C[C@@H]2OC [FK506, Tacrolimus, reference compound] |  | 100 | 17 | 67 | 104 | 143 | 156 | 0.01 | substantially no cross-reactivity
3 | CCC[C@@H]1CC(C)C[C@H](C)C[C@H](OC)[C@H]2O[C@@](O)(C(=O)C(=O)N3CCCC[C@H]3C(=O)O[C@H](C(C)C[C@@H]3CC[C@@H](OC(=O)NCC(=O)OCC)[C@H](OC)C3)[C@H](C)[C@@H](O)CC1=NOCC(=O)O)[C@H](C)C[C@@H]2OC (stereo partly drawn) [FK-506-1] | much lower cross-reactivities | 1.5 | 18 | 68 | 102 | 140 | 154 | 0.02 | 
